Reference: patent US8273754B2, “Substituted 1H-pyrazolo[3,4-D]pyrimidine-6-amine compounds” (ArQule, Inc., priority 2008, dated 2012)
Where two headings read alike, the source gives them in different places.

Assays:
FGFR2 (N549H) = biological target: T1, FGFR2 (N549H) (Homo sapiens, UniProt P21802, N549H); experiment: fluorescent ELISA assay for inhibitors of FGFR2 kinase; format: biochemical; conditions: Pyk2 peptide substrate, 60 minutes
T1 construct: purchased Millipore 14-742
How it was run: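 FGFR2 enzyme (0.5 μM) phosphorylates biotinylated Pyk2 peptide (37 μM) with 12.5 μM ATP added, in Tris-HCl buffer containing 10 mM MgCl2, 2 mM DTT and 75 μM ATP, for 60 min. Peptide captured on streptavidin 30 min at room temperature; phosphotyrosine detected by antibody, alkaline phosphatase secondary and Attophos fluorescence (ex 400/em 595 nm). Inhibition seen as signal decrease.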

cancer cells = experiment: MTS cell growth inhibition assay (72 hours); format: cell-based
How it was run: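 Growth inhibition read as formazan absorbance at 492 nm after 4 h MTS/PMS, following 72 h compound exposure at 37 °C in 1% FBS DMEM (cells pre-seeded 18 h). IC50 = 50% absorbance reduction; inhibition graded in bands.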

[1] = Homo sapiens, DLD-1, 72 h, DLD-1 cells, read-out: DLD-1 MTS 72 hr at 10 μM
[2] = Homo sapiens, KATO III, 72 h, KATO III cells, read-out: KATO III MTS 72 hr at 10 μM
[3] = Homo sapiens, MDA-MB-231, 72 h, MDA-MB-231 cells, read-out: MDA-MB-231 MTS 72 hr at 10 μM
[4] = Homo sapiens, NCI-H1299, 72 h, NCI-H1299 cells, read-out: NCI-H1299 MTS 72 hr at 10 μM
[5] = PaCa-2, 72 h, PACA-2 cells, read-out: PACA-2 MTS 72 hr at 10 μM

T1 sequence (P21802 22-821 N549H): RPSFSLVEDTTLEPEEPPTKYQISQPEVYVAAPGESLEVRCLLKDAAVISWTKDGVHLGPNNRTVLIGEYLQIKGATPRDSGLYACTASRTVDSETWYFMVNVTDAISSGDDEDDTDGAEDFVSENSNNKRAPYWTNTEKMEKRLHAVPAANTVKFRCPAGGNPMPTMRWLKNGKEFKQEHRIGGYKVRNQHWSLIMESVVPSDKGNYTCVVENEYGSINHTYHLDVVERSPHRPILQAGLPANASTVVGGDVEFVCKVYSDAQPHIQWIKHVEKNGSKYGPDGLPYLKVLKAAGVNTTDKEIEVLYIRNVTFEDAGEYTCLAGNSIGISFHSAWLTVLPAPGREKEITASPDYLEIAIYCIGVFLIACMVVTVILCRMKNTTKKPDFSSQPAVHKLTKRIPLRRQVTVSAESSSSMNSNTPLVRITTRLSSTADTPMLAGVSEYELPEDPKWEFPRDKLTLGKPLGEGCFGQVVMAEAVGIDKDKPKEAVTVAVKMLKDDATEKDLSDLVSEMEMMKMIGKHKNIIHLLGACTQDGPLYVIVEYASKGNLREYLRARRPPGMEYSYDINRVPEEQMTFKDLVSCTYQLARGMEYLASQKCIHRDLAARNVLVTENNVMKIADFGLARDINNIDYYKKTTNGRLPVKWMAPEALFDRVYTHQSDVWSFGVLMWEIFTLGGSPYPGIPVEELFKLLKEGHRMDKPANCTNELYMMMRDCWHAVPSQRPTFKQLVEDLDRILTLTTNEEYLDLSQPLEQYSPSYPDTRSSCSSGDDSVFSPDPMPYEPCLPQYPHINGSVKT

Nc1nc(NC2Cc3ccccc3N(Cc3ccc(F)cc3F)C2)c2cn[nH]c2n1 (centres unmarked) [Compound 1, N^4-(1-(2,4-difluorobenzyl)-1,2,3,4-tetrahydroquinolin-3-yl)-1H-pyrazolo[3,4-d]pyrimidine-4,6-diamine]
melting point: 110 to 114 °C | IC50 (FGFR2 (N549H)): 1.81 µM | inhibition at 10 µM (cancer cells; [1]): > 79% | inhibition at 10 µM (cancer cells; [2]): > 79% | inhibition at 10 µM (cancer cells; [3]): < 50% | inhibition at 10 µM (cancer cells; [4]): 50 to 79% | inhibition at 10 µM (cancer cells; [5]): 50 to 79%

Nc1nc(NC2Cc3ccccc3N(CCc3ccccc3)C2)c2cn[nH]c2n1 (centres unmarked) [Compound 2, N^4-(1-(2-phenylethyl)-1,2,3,4-tetrahydroquinolin-3-yl)-1H-pyrazolo[3,4-d]pyrimidine-4,6-diamine]
melting point: 117 to 122 °C | IC50 (FGFR2 (N549H)): 0.17 µM | inhibition at 10 µM (cancer cells; [1]): 50 to 79% | inhibition at 10 µM (cancer cells; [2]): 50 to 79% | inhibition at 10 µM (cancer cells; [3]): < 50% | inhibition at 10 µM (cancer cells; [4]): 50 to 79% | inhibition at 10 µM (cancer cells; [5]): < 50%

Nc1nc(NC2Cc3ccccc3N(Cc3ccc(Cl)cc3Cl)C2)c2cn[nH]c2n1 (centres unmarked) [Compound 4, N^4-(1-(2,4-dichlorobenzyl)-1,2,3,4-tetrahydroquinolin-3-yl)-1H-pyrazolo[3,4-d]pyrimidine-4,6-diamine]
melting point: 170 to 174 °C | IC50 (FGFR2 (N549H)): 3.06 µM | inhibition at 10 µM (cancer cells; [1]): > 79% | inhibition at 10 µM (cancer cells; [2]): > 79% | inhibition at 10 µM (cancer cells; [3]): > 79% | inhibition at 10 µM (cancer cells; [4]): > 79% | inhibition at 10 µM (cancer cells; [5]): > 79%

Nc1nc(NC2Cc3ccccc3N(Cc3cccc(C(F)(F)F)c3)C2)c2cn[nH]c2n1 (centres unmarked) [Compound 5, N^4-(1-(3-(trifluoromethyl)benzyl)-1,2,3,4-tetrahydroquinolin-3-yl)-1H-pyrazolo[3,4-d]pyrimidine-4,6-diamine]
melting point: 89 to 94 °C | IC50 (FGFR2 (N549H)): 10.7 µM | inhibition at 10 µM (cancer cells; [1]): < 50% | inhibition at 10 µM (cancer cells; [2]): 50 to 79% | inhibition at 10 µM (cancer cells; [3]): < 50% | inhibition at 10 µM (cancer cells; [4]): < 50% | inhibition at 10 µM (cancer cells; [5]): < 50%

Nc1nc(N[C@H]2Cc3ccccc3N(Cc3ccc(F)cc3)C2)c2cn[nH]c2n1 [Compound 8, N^4-((3S)-1-(4-fluorobenzyl)-1,2,3,4-tetrahydroquinolin-3-yl)-1H-pyrazolo[3,4-d]pyrimidine-4,6-diamine]
melting point: 78 to 80 °C | IC50 (FGFR2 (N549H)): 11 µM | inhibition at 10 µM (cancer cells; [1]): > 79% | inhibition at 10 µM (cancer cells; [2]): > 79% | inhibition at 10 µM (cancer cells; [3]): < 50% | inhibition at 10 µM (cancer cells; [4]): < 50% | inhibition at 10 µM (cancer cells; [5]): < 50%

Nc1nc(N[C@@H]2Cc3ccccc3N(Cc3ccc(F)cc3)C2)c2cn[nH]c2n1 [Compound 9, (R)—N4-(1-(4-fluorobenzyl)-1,2,3,4-tetrahydroquinolin-3-yl)-1H-pyrazolo[3,4-d]pyrimidine-4,6-diamine]
melting point: 140 to 143 °C | IC50 (FGFR2 (N549H)): 0.22 µM | inhibition at 10 µM (cancer cells; [1]): 50 to 79% | inhibition at 10 µM (cancer cells; [2]): > 79% | inhibition at 10 µM (cancer cells; [3]): < 50% | inhibition at 10 µM (cancer cells; [4]): 50 to 79% | inhibition at 10 µM (cancer cells; [5]): 50 to 79%

Nc1nc(NC2Cc3ccccc3N(c3ccccc3)C2)c2cn[nH]c2n1 (centres unmarked) [Compound 11, N^4-(1-phenyl-1,2,3,4-tetrahydroquinolin-3-yl)-1H-pyrazolo[3,4-d]pyrimidine-4,6-diamine]
melting point: 88 to 92 °C | IC50 (FGFR2 (N549H)): 2.08 µM | inhibition at 10 µM (cancer cells; [1]): < 50% | inhibition at 10 µM (cancer cells; [2]): < 50% | inhibition at 10 µM (cancer cells; [3]): < 50% | inhibition at 10 µM (cancer cells; [4]): < 50% | inhibition at 10 µM (cancer cells; [5]): < 50%

Nc1nc(NC2Cc3ccccc3N(C(=O)c3ccccc3)C2)c2cn[nH]c2n1 (centres unmarked) [Compound 12, (3-(6-amino-1H-pyrazolo[3,4-d]pyrimidin-4-ylamino)-3,4-dihydroquinolin-1(2H)-yl)(phenyl)methanone]
melting point: 155 to 164 °C | IC50 (FGFR2 (N549H)): 21 µM | inhibition at 10 µM (cancer cells; [1]): < 50% | inhibition at 10 µM (cancer cells; [2]): < 50% | inhibition at 10 µM (cancer cells; [3]): < 50% | inhibition at 10 µM (cancer cells; [4]): < 50% | inhibition at 10 µM (cancer cells; [5]): < 50%

Nc1nc(NC2Cc3ccccc3N(C(=O)c3ccc(Cl)cc3Cl)C2)c2cn[nH]c2n1 (centres unmarked) [Compound 13, (3-(6-amino-1H-pyrazolo[3,4-d]pyrimidin-4-ylamino)-3,4-dihydroquinolin-1(2H)-yl)(2,4-dichlorophenyl)methanone]
melting point: 165 to 173 °C | IC50 (FGFR2 (N549H)): 17.9 µM | inhibition at 10 µM (cancer cells; [1]): < 50% | inhibition at 10 µM (cancer cells; [2]): < 50% | inhibition at 10 µM (cancer cells; [3]): < 50% | inhibition at 10 µM (cancer cells; [4]): < 50% | inhibition at 10 µM (cancer cells; [5]): < 50%

Nc1nc(NC2Cc3ccccc3N(S(=O)(=O)c3ccc(Cl)cc3Cl)C2)c2cn[nH]c2n1 (centres unmarked) [Compound 14, N^4-(1-(2,4-dichlorophenylsulfonyl)-1,2,3,4-tetrahydroquinolin-3-yl)-1H-pyrazolo[3,4-d]pyrimidine-4,6-diamine]
melting point: 153 to 163 °C | IC50 (FGFR2 (N549H)): 0.23 µM | inhibition at 10 µM (cancer cells; [1]): < 50% | inhibition at 10 µM (cancer cells; [2]): 50 to 79% | inhibition at 10 µM (cancer cells; [3]): < 50% | inhibition at 10 µM (cancer cells; [4]): < 50% | inhibition at 10 µM (cancer cells; [5]): < 50%

Nc1nc(NC2Cc3ccccc3N(S(=O)(=O)c3ccc(NC(=O)Nc4ccc(Cl)c(C(F)(F)F)c4)cc3)C2)c2cn[nH]c2n1 (centres unmarked) [Compound 222, 1-(4-(3-(6-amino-1H-pyrazolo[3,4-d]pyrimidin-4-ylamino)-3,4-dihydroquinolin-1(2H)-ylsulfonyl)phenyl)-3-(4-chloro-3-(trifluromethyl)phenyl)urea]
IC50 (FGFR2 (N549H)): > 0.3 µM | inhibition at 10 µM (cancer cells; [1]): > 79% | inhibition at 10 µM (cancer cells; [2]): > 79% | inhibition at 10 µM (cancer cells; [3]): > 79% | inhibition at 10 µM (cancer cells; [4]): > 79% | inhibition at 10 µM (cancer cells; [5]): > 79%

Nc1nc(NC2Cc3ccccc3N(Cc3cccc(-c4ccccc4)c3)C2)c2cn[nH]c2n1 (centres unmarked) [Compound 224, N4-(1-(biphenyl-3-ylmethyl)-1,2,3,4-tetrahydroquinolin-3-yl)-1H-pyrazolo[3,4-d]pyrimidine-4,6-diamine]
melting point: 128 to 132 °C | IC50 (FGFR2 (N549H)): 19.3 µM | inhibition at 10 µM (cancer cells; [1]): > 79% | inhibition at 10 µM (cancer cells; [2]): > 79% | inhibition at 10 µM (cancer cells; [3]): < 50% | inhibition at 10 µM (cancer cells; [4]): > 79% | inhibition at 10 µM (cancer cells; [5]): > 79%
